In PubChem BioAssay AID256 (DTP/NCI, 2004) one finds T/C data, which are given here for 24 molecules.

The test system of this assay is CD2F1 mice, L1210 leukemia ip, survival T/C. The assay is described as follows: NCI In Vivo Anticancer Drug Screen. Data for tumor model L1210 Leukemia (intraperitoneal) in CD2F1 (CDF1) mice. Conditions: endpoint: mean survival time, higher = longer survival. Put shortly: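 Activity against a transplanted murine tumor was judged by comparing the compound group with a vehicle group. The outcome in the treated animals was divided by that in the controls.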

[1] abbreviates: dose: 100.0 mg/kg/injection, schedule: Q04DX003 (ip), vehicle: saline with Tween-80.
The mark [2] stands for this setting: dose: 200.0 mg/kg/injection, schedule: Q04DX003 (ip), vehicle: saline with Tween-80.
[3] abbreviates: dose: 400.0 mg/kg/injection, schedule: Q04DX003 (ip), vehicle: saline with Tween-80.
The mark [4] stands for this setting: dose: 100.0 mg/kg/injection, schedule: Q04DX002 (ip), vehicle: saline with Tween-80.
Setting [5] is: dose: 100.0 mg/kg/injection, schedule: Q01DX009 (ip), vehicle: saline sonified.
Where [6] appears, read: dose: 200.0 mg/kg/injection, schedule: Q01DX009 (ip), vehicle: saline sonified.
[7] abbreviates: dose: 400.0 mg/kg/injection, schedule: Q01DX009 (ip), vehicle: saline sonified.
Where [8] appears, read: dose: 100.0 mg/kg/injection, schedule: Q01DX009 (ip), vehicle: saline with Tween-80.

Where “and” joins values, the source holds several entries; their conditions need not be identical. Equal entries are not always repeated. Toxic doses and inconclusive results are not listed.

`Cc1ccccc1OP(=O)(c1ccccc1)c1ccccc1`: the T/C under setting [1] is 100 % of control, the T/C under setting [2] was 105 % of control and the T/C under setting [3] is 110 % of control.

As for `CCOC(=O)CCC[P+](c1ccccc1)(c1ccccc1)c1ccccc1`, the T/C runs as follows: under setting [1], 100 % of control; under setting [2], 100 % of control; under setting [3], 98 % of control.

As for `O=C1C2C3CCC(O3)C2C(=O)N1CO` (stereo unspecified), the T/C (dose: 25.0 mg/kg/injection, schedule: Q04DX002 (ip), vehicle: saline with Tween-80) was 110 % of control; the T/C (dose: 50.0 mg/kg/injection, schedule: Q04DX002 (ip), vehicle: saline with Tween-80) is 98 % of control; the T/C under setting [4] is 91 % of control.

As to `CN(C)c1n[nH]c(=S)s1`, the T/C was 100 % of control under setting [1], 100 % of control under setting [2] and 88 % of control under setting [3].

As to `CC(C)C(Br)C(N)=O` (stereo unspecified), the T/C is, setting by setting: under setting [5], 97 % of control; under setting [6], 89 % of control; under setting [7], 87 % of control.

Take `CC(=O)OC1OC(CO)C(OC(C)=O)C(OC(C)=O)C1OC(C)=O` (stereo unspecified): the T/C is, setting by setting: under setting [5], 97 % of control; under setting [6], 97 % of control; under setting [7], 98 % of control.

For `CCOCc1cc([N+](=O)[O-])cc([N+](=O)[O-])c1O`, the T/C (dose: 12.5 mg/kg/injection, schedule: Q04DX003 (ip), vehicle: saline with Tween-80) was 98 % of control; the T/C (dose: 25.0 mg/kg/injection, schedule: Q04DX003 (ip), vehicle: saline with Tween-80) was 98 % of control; the T/C (dose: 50.0 mg/kg/injection, schedule: Q04DX003 (ip), vehicle: saline with Tween-80) is 100 % of control.

Take `O=[N+]([O-])c1cccc(OCCOc2ccccc2)c1`: the T/C is 98 % of control under setting [1], 94 % of control under setting [2] and 91 % of control under setting [3].

As for `CCC1C(=O)OCc2c1cc1n(c2=O)Cc2cc3ccccc3nc2-1` (stereo unspecified), the T/C is, setting by setting: (dose: 7.39 mg/kg/injection, schedule: Q01DX001 (ip), vehicle: saline) 101 % of control; (dose: 11.1 mg/kg/injection, schedule: Q01DX001 (ip), vehicle: saline) 101 % of control; (dose: 16.6 mg/kg/injection, schedule: Q01DX001 (ip), vehicle: saline) 100 % of control; (dose: 25.0 mg/kg/injection, schedule: Q01DX001 (ip), vehicle: saline) 111 % of control.

As to `CCC[CH2][Sn]1([CH2]CCC)[O]C2C(CO)OC(n3ccc(N)nc3=O)C2[O]1` (stereo unspecified), the T/C was 116 % of control (dose: 0.78 mg/kg/injection, schedule: Q01DX009 (ip), vehicle: Klucel (hydroxypropylcellulose) (HPC)); 104 % of control (dose: 1.56 mg/kg/injection, schedule: Q01DX005 (ip), vehicle: other); 113 % of control (dose: 1.56 mg/kg/injection, schedule: Q01DX009 (ip), vehicle: Klucel (hydroxypropylcellulose) (HPC)); 104 % of control (dose: 3.13 mg/kg/injection, schedule: Q01DX005 (ip), vehicle: other); 113 % of control (dose: 6.25 mg/kg/injection, schedule: Q01DX005 (ip), vehicle: other); 115 % of control (dose: 6.25 mg/kg/injection, schedule: Q01DX009 (ip), vehicle: Klucel (hydroxypropylcellulose) (HPC)).

For the molecule `CCc1ccc(NC(=O)c2ccccc2C(=O)O)cc1`, the T/C is, setting by setting: under setting [8], 102 % of control; under setting [1], 101 % of control; (dose: 200.0 mg/kg/injection, schedule: Q01DX009 (ip), vehicle: saline with Tween-80) 98 % of control; under setting [2], 97 % of control; (dose: 400.0 mg/kg/injection, schedule: Q01DX009 (ip), vehicle: saline with Tween-80) 105 % of control; under setting [3], 97 % of control.

Regarding `CCO/C=C1\SC(=S)N(Cc2ccccc2)C1=O`, the T/C (dose: 25.0 mg/kg/injection, schedule: Q01DX009 (ip), vehicle: other) was 105 % of control; the T/C (dose: 50.0 mg/kg/injection, schedule: Q01DX009 (ip), vehicle: other) is 115 % of control; the T/C under setting [8] was 89 % of control.

Regarding `NCCSCC(N)C(=O)O` (stereo unspecified), the T/C is, setting by setting: (dose: 50.0 mg/kg/injection, schedule: Q01DX009 (ip), vehicle: saline) 100 % of control; (dose: 100.0 mg/kg/injection, schedule: Q01DX009 (ip), vehicle: saline) 100 % of control; (dose: 200.0 mg/kg/injection, schedule: Q01DX009 (ip), vehicle: saline) 104 % of control.

Consider `[O-][n+]1ccccc1F`, for which the T/C (dose: 100.0 mg/kg/injection, schedule: Q01DX001 (ip), vehicle: saline) is 104 % of control.

For the molecule `CN(C)c1nc(-c2ccncc2)nc(N2CCOCC2)n1`, the T/C under setting [4] was 92 % of control.

For the molecule `COc1cc2c(cc1OC)C(Cc1ccccc1)=NCC2`, the T/C by setting is: (dose: 50.0 mg/kg/injection, schedule: Q01DX009 (ip), vehicle: saline sonified) 101 % of control; under setting [5], 101 % of control; under setting [1], 94 % of control; under setting [2], 92 % of control.

Consider `CCSCCNC1=C(C)C(=O)C2=C(C1=O)[C@H](COC(N)=O)[C@]1(OC)[C@@H]3N[C@@H]3CN21`, for which the T/C (dose: 6.0 mg/kg/injection, schedule: Q01DX001 (ip), vehicle: distilled water + Tween-80) is 121 % of control and the T/C (dose: 24.0 mg/kg/injection, schedule: Q01DX001 (ip), vehicle: distilled water + Tween-80) is 155 % of control.

For `O=C1C(Cl)=C(Nc2cccc(Cl)c2)C(=O)c2ccccc21`, the T/C runs as follows: (dose: 100.0 mg/kg/injection, schedule: Q04DX002 (ip), vehicle: other) 90 % of control; (dose: 200.0 mg/kg/injection, schedule: Q04DX002 (ip), vehicle: other) 94 % of control; (dose: 400.0 mg/kg/injection, schedule: Q04DX002 (ip), vehicle: other) 105 % of control.

Turning to `CO[C@@]12[C@@H]3N[C@@H]3CN1C1=C(C(=O)C(Nc3ccc(O)cc3C)=C(C)C1=O)[C@@H]2COC(N)=O`, the T/C by setting is: (dose: 1.5 mg/kg/injection, schedule: Q01DX001 (ip), vehicle: water) 119 % of control and 111 % of control; (dose: 3.0 mg/kg/injection, schedule: Q01DX001 (ip), vehicle: water) 122 % of control and 111 % of control; (dose: 6.0 mg/kg/injection, schedule: Q01DX001 (ip), vehicle: water) 120 % of control and 122 % of control; (dose: 12.0 mg/kg/injection, schedule: Q01DX001 (ip), vehicle: water) 120 % of control.

As to `C=C1C(=O)OCC1C(=O)O` (stereo unspecified), the T/C is, setting by setting: (dose: 4.0 mg/kg/injection, schedule: Q01DX009 (ip), vehicle: saline) 97 % of control and 106 % of control; (dose: 8.0 mg/kg/injection, schedule: Q01DX009 (ip), vehicle: saline) 96 % of control and 101 % of control; (dose: 16.0 mg/kg/injection, schedule: Q01DX009 (ip), vehicle: saline) 101 % of control and 110 % of control; (dose: 32.0 mg/kg/injection, schedule: Q01DX009 (ip), vehicle: saline) 104 % of control and 110 % of control; (dose: 64.0 mg/kg/injection, schedule: Q01DX009 (ip), vehicle: saline) 88 % of control.

Turning to `CC1(C)N=C(N)N=C(N)N1c1ccc(CCCCc2ccc(Cl)c(S(=O)(=O)F)c2)c(Cl)c1`, the T/C by setting is: (dose: 2.4 mg/kg/injection, schedule: Q01DX009 (ip), vehicle: saline with Tween-80) 101 % of control; (dose: 3.6 mg/kg/injection, schedule: Q01DX009 (ip), vehicle: saline with Tween-80) 95 % of control; (dose: 5.4 mg/kg/injection, schedule: Q01DX009 (ip), vehicle: saline with Tween-80) 104 % of control; (dose: 8.0 mg/kg/injection, schedule: Q01DX009 (ip), vehicle: saline with Tween-80) 106 % of control; (dose: 12.0 mg/kg/injection, schedule: Q01DX009 (ip), vehicle: saline with Tween-80) 108 % of control; (dose: 18.0 mg/kg/injection, schedule: Q01DX009 (ip), vehicle: saline with Tween-80) 117 % of control. In addition, the T/C (dose: 100.0 mg/kg/injection, schedule: Q04DX003 (ip), vehicle: saline sonified) was 90 % of control.

In the case of `CC(C)c1cc(C(C)C)n2nc(N)nc2n1`, the T/C was 106 % of control under setting [1], 98 % of control under setting [2] and 97 % of control under setting [3].

As to `CC(=O)NNC(=O)CC(O)(c1ccccc1)c1ccccc1`, the T/C under setting [4] is 113 % of control and the T/C (dose: 200.0 mg/kg/injection, schedule: Q04DX002 (ip), vehicle: saline with Tween-80) was 95 % of control.

Take `C=C1c2ccccc2C=NN1c1ccccc1`: the T/C was 94 % of control (dose: 100.0 mg/kg/injection, schedule: Q01DX001 (ip), vehicle: other); 88 % of control (dose: 200.0 mg/kg/injection, schedule: Q01DX001 (ip), vehicle: other); 92 % of control (dose: 400.0 mg/kg/injection, schedule: Q01DX001 (ip), vehicle: other).
